In PubChem BioAssay (NCI) one finds TGI data, which are given here for 15 compounds.

Among the test systems are HOP-92 NSCLC; CCRF-CEM leukemia; HCT-116 colon; HS 578T breast; OVCAR-3 ovarian; CAKI-1 renal; NCI-H522 lung; KM12 colon; K-562 leukemia; T-47D breast.
Common to all, as to experiment: NCI anticancer screen, dose series, 48 h

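Growth conditions: 96-well plates. Treatment: test compound, 48 hours, 5 concentrations. Analysis: linear interpolation between bracketing concentrations; unreached endpoints set to highest concentration. At the TGI there is no net growth.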

For the compound `COc1cccc(/C=C2/Sc3scc(-c4ccccc4)[n+]3C2=O)c1O`, the TGI with HOP-92 NSCLC is 51.2 µM; with CCRF-CEM leukemia, 30.4 µM; in the assay with HCT-116 colon it was 29.2 µM; in the assay on HS 578T breast, more than 100 µM; in the assay on OVCAR-3 ovarian, 95.3 µM; with CAKI-1 renal it was 47.7 µM. Moreover, the TGI with NCI-H522 lung was 52.8 µM; with KM12 colon it was 40.4 µM.
For the compound `COc1ccc(-c2c(N)n(-c3nc4ccccc4s3)c(=O)c3cc([N+](=O)[O-])ccc23)cc1`, the TGI in the assay on HOP-92 NSCLC is more than 100 µM; in the assay on CCRF-CEM leukemia, more than 100 µM; in the assay with HCT-116 colon it was more than 100 µM; with HS 578T breast, 37.3 µM; in the assay with OVCAR-3 ovarian, 35.4 µM; in the assay with CAKI-1 renal, 48.5 µM. For the same compound, the TGI in the assay on K-562 leukemia was more than 100 µM; in the assay on NCI-H522 lung it was 23.5 µM; in the assay with KM12 colon, more than 100 µM.
Consider `O=C(Cn1c2c(c3ccccc31)CCCC2)NC1CCCCC1`, for which the TGI in the assay with CCRF-CEM leukemia, in the assay on HCT-116 colon, with HS 578T breast, in the assay on OVCAR-3 ovarian, in the assay with CAKI-1 renal and in the assay with K-562 leukemia was more than 100 µM throughout.
For the compound `NNC(=O)c1ccc(-n2nnc(C(=O)NN)c2C(=O)NN)cc1`, the TGI in the assay with HOP-92 NSCLC, with CCRF-CEM leukemia, in the assay with HCT-116 colon, in the assay on OVCAR-3 ovarian, in the assay on CAKI-1 renal and with K-562 leukemia was more than 100 µM in each case. The same compound registered a TGI in the assay with KM12 colon of more than 100 µM.
With `COc1ccccc1NC(=O)/C(Cc1nc2ccc([N+](=O)[O-])cc2[nH]c1=O)=N\NC(=O)C[N+](C)(C)C`, the TGI in the assay with HOP-92 NSCLC was more than 100 µM; in the assay with CCRF-CEM leukemia it was 94.5 µM; in the assay on HCT-116 colon, more than 100 µM; in the assay on HS 578T breast it was more than 100 µM; in the assay on OVCAR-3 ovarian, more than 100 µM; with CAKI-1 renal it was more than 100 µM. The TGI with NCI-H522 lung and in the assay with KM12 colon was more than 100 µM each time.
For `CNC(=O)N1CN(c2ccccc2)C2(CCN(CCCC(=O)c3ccc(F)cc3)CC2)C1=O`, the TGI is 70.8 µM in the assay on CCRF-CEM leukemia; 24.6 µM in the assay on HCT-116 colon; 41.6 µM in the assay on OVCAR-3 ovarian; more than 100 µM in the assay on CAKI-1 renal; 33.8 µM in the assay on T-47D breast; 49 µM with K-562 leukemia. The results for the TGI with NCI-H522 lung and in the assay on KM12 colon were 56.6 µM and 45.9 µM, respectively.
Consider `CC(=O)Nc1ccccc1SCCSSCCSc1ccccc1NC(C)=O`, for which the TGI in the assay with HOP-92 NSCLC is 64.4 µM; in the assay on CCRF-CEM leukemia it was 70.4 µM; in the assay on HCT-116 colon, more than 100 µM; in the assay on OVCAR-3 ovarian, more than 100 µM; with CAKI-1 renal it was 83.4 µM; with T-47D breast, 92.9 µM. The TGI in the assay on K-562 leukemia was more than 100 µM; with NCI-H522 lung it was 34.3 µM; in the assay with KM12 colon, more than 100 µM.
As to `COC(=O)C1CC2(CCC1=O)Cc1ccccc1C2=O` (stereo unspecified), the TGI in the assay with CCRF-CEM leukemia, in the assay with HCT-116 colon, in the assay on HS 578T breast, in the assay on CAKI-1 renal, with T-47D breast and in the assay with K-562 leukemia was more than 100 µM each time. Also, the TGI in the assay on NCI-H522 lung and in the assay on KM12 colon was more than 100 µM in each case.
`COC(=O)C1=CSC2(S1)C(C(=O)OC)=CSc1c2ssc1=Nc1ccccc1` (stereo unspecified): the TGI in the assay with CCRF-CEM leukemia was 7.96 µM; in the assay on HCT-116 colon it was 4.06 µM; with HS 578T breast, 8.34 µM; with OVCAR-3 ovarian it was more than 100 µM; in the assay with CAKI-1 renal it was 32.9 µM; in the assay with T-47D breast it was more than 100 µM. For the same compound, the TGI with K-562 leukemia worked out at 7.38 µM; with NCI-H522 lung, 3.4 µM; in the assay on KM12 colon it was 10.1 µM.
For the compound `Cc1c(/C=N/NC(=S)Nc2ccccc2Cl)c(=O)n(-c2ccccc2)n1C`, the TGI is more than 100 µM in the assay on CCRF-CEM leukemia; more than 100 µM in the assay with HCT-116 colon; 85.3 µM with HS 578T breast; more than 100 µM in the assay with OVCAR-3 ovarian; 81.3 µM in the assay with CAKI-1 renal; more than 100 µM in the assay with T-47D breast. The TGI in the assay on K-562 leukemia was more than 100 µM; in the assay with NCI-H522 lung, 60.9 µM; in the assay with KM12 colon, more than 100 µM.
Consider `N#CC(c1ccccc1)c1nc2ccc(=N)cc-2n(O)c1C(C#N)c1ccccc1` (stereo unspecified), for which the TGI in the assay with CCRF-CEM leukemia, in the assay on HCT-116 colon, in the assay with OVCAR-3 ovarian, with CAKI-1 renal, in the assay with K-562 leukemia and with NCI-H522 lung was more than 100 µM in each case. This compound also registered a TGI in the assay on KM12 colon of more than 100 µM.
As for `CC(C)[C@@H]1NC(=O)[C@H]2N=C(O[C@@H]2C)[C@@H]2CCCN2C(=O)[C@H](Cc2ccccc2)NC(=O)[C@@H]2CSC(=N2)[C@@H](Cc2ccccc2)NC(=O)[C@@H]2CSC1=N2`, the TGI in the assay with CCRF-CEM leukemia, in the assay on HCT-116 colon, in the assay on HS 578T breast, with OVCAR-3 ovarian, in the assay on CAKI-1 renal and in the assay with T-47D breast was more than 50 µM each time. Further, the TGI with K-562 leukemia, in the assay on NCI-H522 lung and in the assay with KM12 colon was more than 50 µM each time.
Consider `CC1CC[C@@H](C(C)C)[C@H](Oc2nnc(C3OC(CO)C(O)C3O)o2)C1` (stereo partly specified), for which the TGI in the assay on HOP-92 NSCLC, with CCRF-CEM leukemia, in the assay with HCT-116 colon, in the assay on OVCAR-3 ovarian, in the assay on CAKI-1 renal and with T-47D breast was more than 100 µM each time. Moreover, the TGI with K-562 leukemia and with KM12 colon was more than 100 µM in each case.
Consider `CCOC(=O)C1=C(O)C(=O)c2ccsc2C1=O`, for which the TGI in the assay on HOP-92 NSCLC, in the assay with CCRF-CEM leukemia, in the assay on HCT-116 colon, with OVCAR-3 ovarian, in the assay with CAKI-1 renal and in the assay with K-562 leukemia was more than 100 µM each time. The TGI with NCI-H522 lung and in the assay with KM12 colon was more than 100 µM in each case.
Take `CC12NN=NC1C(=O)NC2=O` (stereo unspecified): the TGI with HOP-92 NSCLC, with CCRF-CEM leukemia, in the assay with HCT-116 colon, in the assay with OVCAR-3 ovarian, with CAKI-1 renal and in the assay with K-562 leukemia was more than 100 µM throughout. The TGI in the assay on NCI-H522 lung and with KM12 colon was more than 100 µM each time.
